Data: patent US6140327A, “Morpholino-n-ethyl ester derivative of an indole sPLA2 inhibitor” (Eli Lilly and Company, priority 1999, dated 2000)

Key:
[1] = Monkey Pharmacokinetic Study (bioavailability); format: in vivo; settings: conclusion compared with other esters of the parent and the 2-methyl homolog, oral administration
Experimental: Plasma was assayed by HPLC to measure concentrations of the different sPLA2 inhibitors (measured as free acids).
Cmax (maximal plasma concentrations), and AUC values were determined from the mean plasma concentration-time profiles.

[2] = molecular target: recombinant human secreted phospholipase A2; settings: cited from earlier work
[3] = molecular target: recombinant human secreted phospholipase A2; settings: guinea pig lung tissue; sPLA2 10 ug/ml; read-out: Tissue test secreted PLA2 Apparent KB; cited from earlier work

| Compound | bioavailability (in words) [1] | bioavailability (in words) ([1]; listed as formula (I)) | IC50 ([2]; chromogenic assay, 3-4 tests, read-out: Inhibition of human secreted PLA2 IC50 ± mean deviation (3-4 tests)) [nM] | inhibiting sPLA2 (conclusion in words) ([2]; conclusion of Table I) | Kb [3] [nM] |
| --- | --- | --- | --- | --- | --- |
| CCc1c(C(=O)C(N)=O)c2c(OCC(=O)OCCN3CCOCC3)cccc2n1Cc1ccccc1 [Compound 1, ((3-(2-amino-1,2-dioxoethyl)-2-ethyl-1-(phenylmethyl)-1H-indol-4-yl)oxy)acetic acid morpholino-N-ethyl ester] | unexpectedly more bioavailable than other esters of the parent sPLA2 inhibitor of formula II and also more bioavailable than the 2-methyl homolog of the parent sPLA2 inhibitor of formula II | highly bioavailable upon oral administration compared to closely related ester type prodrugs | – | – | – |
| CCc1c(C(=O)C(N)=O)c2c(OCC(=O)O)cccc2n1Cc1ccccc1 [formula (II), ((3-(2-amino-1,2-dioxoethyl)-2-ethyl-1-(phenylmethyl)-1H-indol-4-yl)oxy)acetic acid] | – | – | 9 ± 1.73 | highly active in inhibiting sPLA2 | 88.7 ± 18.2 |
